Assay results taken from US20190376971A1, “Compositions and Methods for the Assessment of Drug Target Occupancy for Bruton's Tyrosine Kinase” (Acerta Pharma B.V., priority 2017, published 2019).

Experiments:
BTK [1] = target: T1, BTK (Homo sapiens, UniProt Q06187); assay: Binding of biotin probes to recombinant BTK, Western blot with Streptavadin-HRP; conditions: PBS, lysis buffer 1 or lysis buffer 2
Experimental: For the biotin probes (such as Formula (3) and Formula (4)), samples are run using SDS-PAGE gel, followed by transferring the protein to a polyvinylidene fluoride (PVDF) membrane by Western blotting. Subsequently, the blot is blocked overnight at 4° C. in TBS-T (10 mM TRIS pH 7.4, 100 mM NaCl, 0.1% Tween 20)+2.5% (w/v) skimmed milk powder). The blot is washed 4× with TBS-T and then incubated with Streptavadin-HRP for 1 hour at room temperature. The blot is washed again 4× with TBS-T before adding the chemiluminescent substrate, followed by measurement of the chemiluminescence signal.
SDS-PAGE procedures are known to those of ordinary skill in the art. A non-limiting example of a SDS-PAGE procedure is as follows: • 1. Add 1.1 μL of probe to 10 μL of each sample (recombinant BTK or cell lysate); final probe concentration 0.1 μM. • 2. Incubate 2 hour at room temperature. • 3. Add 4 μL sample buffer/DTT (200 μM) and incubate for 5 minutes at 95° C. • 4. Vortex and keep on ice until loading on gel. • 5. […] For the samples on gel with the fluorescent probe, the gels are measured directly using an imager suitable for measuring the fluorescent label on the probes (e.g., E tan Imager; GE Healthcare (Cy2: 480/30 excitation, 530/40 emission, Cy3: 544 excitation, 570 emission). • 9. For the biotin labeled probes, the gel is blotted to a PVDF membrane, using the Western blot procedure below. […]
Target sequence in this assay (Q06187 whole entry, species assumed): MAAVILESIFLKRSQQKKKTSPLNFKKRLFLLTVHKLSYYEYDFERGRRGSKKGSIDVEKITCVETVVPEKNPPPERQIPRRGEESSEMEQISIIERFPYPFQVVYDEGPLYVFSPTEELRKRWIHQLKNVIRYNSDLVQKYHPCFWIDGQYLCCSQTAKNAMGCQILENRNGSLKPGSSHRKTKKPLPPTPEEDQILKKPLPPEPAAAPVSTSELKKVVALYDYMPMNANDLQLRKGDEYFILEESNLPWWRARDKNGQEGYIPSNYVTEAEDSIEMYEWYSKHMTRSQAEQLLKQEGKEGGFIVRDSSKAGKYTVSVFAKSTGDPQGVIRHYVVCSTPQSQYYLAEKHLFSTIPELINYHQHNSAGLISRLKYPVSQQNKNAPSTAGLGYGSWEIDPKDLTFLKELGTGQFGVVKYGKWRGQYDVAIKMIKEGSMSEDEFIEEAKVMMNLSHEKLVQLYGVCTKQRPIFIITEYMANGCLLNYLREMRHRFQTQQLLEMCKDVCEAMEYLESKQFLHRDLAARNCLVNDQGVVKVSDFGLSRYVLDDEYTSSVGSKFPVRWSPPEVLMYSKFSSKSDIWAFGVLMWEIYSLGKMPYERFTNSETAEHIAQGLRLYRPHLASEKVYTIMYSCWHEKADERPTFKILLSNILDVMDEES

BTK [2] = target: T1, BTK; assay: BTK IMAP (immobilized metal ion affinity-based fluorescence polarization) assay; type: biochemical; set-up: endogenous in cells; host or cells: Ramos B cells (Ramos.2G6.4C10); conditions: 5 μM ATP, 60 min pre-incubation, read-out: IC50 for BTK inhibition
Experimental: In summary, BTK enzyme activity is measured using the IMAP (immobilized metal ion affinity-based fluorescence polarization) assay as outlined below. […] After 60 minutes of incubation at room temperature in the dark, the FP signal is read. Fluorescence at 535 nm is measured using parallel and perpendicular filters to determine differences in rotation due to binding of the phosphorylated substrate peptide to the beads. Values are calculated as a percentage of the difference in readout (ΔmPi) of the controls with and without ATP.
Inhibition of the activity of the protein kinase BTK can be measured with the assay described in this protocol. […] The method is based on IMAP, which is a homogeneous fluorescence polarization (FP) assay based on affinity capture of phosphorylated peptide substrates. […]
Target sequence in this assay (Q06187 whole entry): as the sequence (Q06187 whole entry, species assumed) above

BTK [3] = target: T1, BTK; assay: Binding of BODIPY/fluorescent probes to recombinant BTK, SDS-PAGE in-gel fluorescence; conditions: probe 0.1 μM, 2 hours
Experimental: To test different BTK target occupancy probes and lysis buffers, probes were incubated with recombinant BTK protein for 2 hours and subsequently run using sodium dodecyl sulfate polyacrylamide gel electrophoresis (SDS PAGE). When using the boron-dipyrromethene (BODIPY) tagged probes (such as Formula (5) and Formula (6)), the gel is measured directly using a fluorescence imager. BTK probe (final concentration 0.1 μM) is incubated with 125 ng BTK for 2 hours at room temperature. Afterwards, sample buffer is added and run on a SDS-PAGE gel. Fluorescent probes such as Formula (5) and Formula (6) are quantified in gel using the E tan Imager from GE Healthcare, suitable for the emission and detection of fluorescent signal for BODIPY tags.
SDS-PAGE procedures are known to those of ordinary skill in the art. A non-limiting example of a SDS-PAGE procedure is as follows: • 1. Add 1.1 μL of probe to 10 μL of each sample (recombinant BTK or cell lysate); final probe concentration 0.1 μM. • 2. Incubate 2 hour at room temperature. • 3. Add 4 μL sample buffer/DTT (200 μM) and incubate for 5 minutes at 95° C. • 4. Vortex and keep on ice until loading on gel. • 5. Spin down shortly and load 15 μL on a 12 slot Novex gradient gel (4-12% Bis-Tris gel). • 6. Run in NuPage MOPS SDS running buffer. • 7. After running the samples on gel, remove the gel from the surelock holder. • 8. For the samples on gel with the fluorescent probe, the gels are measured directly using an imager suitable for measuring the fluorescent label on the probes (e.g., E tan Imager; GE Healthcare (Cy2: 480/30 excitation, 530/40 emission, Cy3: 544 excitation, 570 emission). • 9. For the biotin labeled probes, the gel is blotted to a PVDF membrane, using the Western blot procedure below.
Target sequence in this assay (Q06187 whole entry, species assumed): as above

[4] = lysis buffer 2 (1% Triton X100)

Row | signal of biotin probe bound to BTK (Streptavadin-HRP chemiluminescence) (BTK [1]) | IC50 (BTK [2]) [nM] | binding to recombinant BTK (fluorescence signal in gel) (BTK [3]; PBS or lysis buffer 1) | binding to recombinant BTK (fluorescence signal in gel) (BTK [3]; [4]) | Structure (SMILES)
1 | stronger signal | 3.4 |  |  | Nc1nccn2c([C@@H]3CCCCN3C(=O)/C=C/CN3CCN(CCNC(=O)CCCC(=O)NCCCOCCOCCOCCCNC(=O)CCCC[C@@H]4SC[C@@H]5NC(=O)N[C@@H]54)CC3)nc(-c3ccc(C(=O)Nc4ccccn4)cc3)c12 [Formula (3), N-[3-[2-[2-[3-[5-[(3aS,4S,6aR)-2-oxo-1,3,3a,4,6,6a-hexahydrothieno[3,4-d]imidazol-4-yl]pentanoylamino]propoxy]ethoxy]ethoxy]propyl]-N′-[2-[4-[(E)-4-[(2S)-2-[8-amino-1-[4-(2-pyridylcarbamoyl)phenyl]imidazo[1,5-a]pyrazin-3-yl]-1-piperidyl]-4-oxo-but-2-enyl]piperazin-1-yl]ethyl]pentanediamide]
2 |  |  | clear binding | minimal | Cc1cc(C)n2c1C=C1C=CC(CCC(=O)NCCN3CCN(C/C=C/C(=O)N4CCC[C@H]4c4nc(-c5ccc(C(=O)Nc6ccccn6)cc5)c5c(N)nccn45)CC3)=[N+]1[B-]2(F)F [Formula (5)]
3 |  |  | clear binding | no detectable binding | Nc1nccn2c([C@@H]3CCCN3C(=O)/C=C/CN3CCN(CCNC(=O)CCCC(=O)NCCCOCCOCCOCCCNC(=O)CCCC[C@@H]4SC[C@@H]5NC(=O)N[C@@H]54)CC3)nc(-c3ccc(C(=O)Nc4nccs4)cc3)c12 [Formula (6)]
4 |  | 1.5 |  |  | COc1ccc(-c2ccc3n2[B-](F)(F)[N+]2=C(C)C(CCC(=O)NCCN4CCN(C/C=C/C(=O)N5CCC[C@H]5c5nc(-c6ccc(C(=O)Nc7ccccn7)cc6)c6c(N)nccn56)CC4)=C(C)C2=C3)cc1 [Formula (4)]
